One data set deals with beta amyloid production. As to the kind of experiment: Repressor Release Assay (RRA). In kind it is cell-based. Particulars: read-out: APPI Fold Increase; for fold induction at 10 µg/mL: Conc 10 μg/ml; for fold induction at 20 µg/mL: Conc 20 μg/ml. The method, boiled down: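 Read-out is luciferase luminescence (RLU) after 36-48 h duplicate compound exposure of transfected CHO-K1 cells. These cells carry transiently introduced APP-lacI and pRSVO-luc DNA. Diluent control was 25 mM Hepes/1% DMSO; toxicity recorded as binary score (1 non-toxic, 0 toxic).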

For a further data set, the system named is CHO-K1 cells. As to the kind of experiment: Toxicity in RRA (loss of luciferase signal). The settings on record: toxicity = loss of signal (<0.75 fold increase).
The mark [1] stands for this setting: luciferase activity over diluent control.
[2] abbreviates: luciferase activity (RLU) over diluent control.
Where [3] appears, read: Conc 20 μg/ml, 1=non-toxic, 0=toxic.

Structures are written as SMILES. Read-outs that look alike come from different tables or passages of the source.

Experimental for CHO-K1 cells: The beta amyloid inhibitory activity of the compounds of the present invention was determined using the Repressor Release Assay (RRA).
“Fold Increase” refers to the amount of luciferase activity (measured in relative light units) over diluent control. “SEM” refers to the standard error of the mean for fold increase.

On to `C=CCCC(O)(CCC=C)[C@@H](NS(=O)(=O)c1ccc(Br)cc1)[C@@H](C)CC` [Example 221, 4-bromo-N-{(1S)-2-(3-butenyl)-2-hydroxy-1-[(1S)-1-methylpropyl]-5-hexenyl}benzenesulfonamide], for which the fold induction at 10 µg/mL in the data set on beta amyloid production (setting [1]) is 5.73. Further, the “(%)APPI Toxicity” value in the data set on CHO-K1 cells (Conc 10 μg/ml) is given as 1 (1=non-toxic).
In the case of `CC[C@H](C)[C@H](NS(=O)(=O)c1ccc(Br)cc1)C(C)O` (stereo partly drawn) [Example 145, 4-bromo-N-[(1S,2S)-1-(1-hydroxyethyl)-2-methylbutyl]benzenesulfonamide], the fold induction at 10 µg/mL in the data set with beta amyloid production (setting [1]) came out at 3.9. Also, the “(%)APPI Toxicity” value with CHO-K1 cells (Conc 10 μg/ml) is listed as 1 (1=non-toxic).
Consider `CC[C@H](C)[C@@H](CO)NS(=O)(=O)c1ccc(F)cc1F` [Example 9, 2,4-difluoro-N-[(1S,2S)-1-(hydroxymethyl)-2-methylbutyl]benzenesulfonamide], for which, in the data set on beta amyloid production (setting [1]), the fold induction at 10 µg/mL is 2.2 and the fold induction at 20 µg/mL came out at 1.8. The “(%)APPI Toxicity” value in the data set on CHO-K1 cells (Conc 10 μg/ml) was 1 (1=non-toxic). Further, the “(%)APPI Toxicity” value with CHO-K1 cells (Conc 20 μg/ml) is on record as 1 (1=non-toxic).
As to `CC(C)C[C@@H](CO)NS(=O)(=O)c1ccc(Cl)cc1` [Example 92, 4-chloro-N-[(1S)-1-(hydroxymethyl)-3-methylbutyl]benzenesulfonamide], in the data set with beta amyloid production (setting [1]), the fold induction at 20 µg/mL is 1.7. Besides, in the data set with CHO-K1 cells (Conc 20 μg/ml), the “(%)APPI Toxicity” value was 1 (1=non-toxic).
With `C=CCCC(O)[C@@H](NS(=O)(=O)c1ccc(Cl)cc1)[C@@H](C)CC` (stereo partly drawn) [Example 180, 4-chloro-N-{(1S)-2-hydroxy-1-[(1S)-1-methylpropyl]-5-hexenyl}benzenesulfonamide], the fold induction at 10 µg/mL in the data set on beta amyloid production (setting [1]) amounted to 1.69. In addition, the “(%)APPI Toxicity” value with CHO-K1 cells (Conc 10 μg/ml) was 1 (1=non-toxic).
Consider `CCCCC(O)[C@@H](NS(=O)(=O)c1cccc(Cl)c1)[C@@H](C)CC` (stereo partly drawn) [Example 189, 3-chloro-N-{(1S)-2-hydroxy-1-[(1S)-1-methylpropyl]hexyl}benzenesulfonamide], for which, in the data set on beta amyloid production (setting [1]), the fold induction at 10 µg/mL is 1.51. Besides, the “(%)APPI Toxicity” value in the data set with CHO-K1 cells (Conc 10 μg/ml) was 1 (1=non-toxic).
As to `CC[C@H](C)[C@@H](CO)NS(=O)(=O)c1ccc(F)cc1Cl` [Example 5, 2-chloro-4-fluoro-N-[(1S,2S)-1-(hydroxymethyl)-2-methylbutyl]benzenesulfonamide], the fold induction at 20 µg/mL with beta amyloid production (setting [1]) was determined as 2.5. Besides, the “(%)APPI Toxicity” value with CHO-K1 cells (Conc 20 μg/ml) is 1 (1=non-toxic).
For `CCC[C@H](CC(C)C)[C@@H](CO)NS(=O)(=O)c1ccc(Cl)cc1` [Example 56, 4-chloro-N-[(1S,2R)-1-(hydroxymethyl)-4-methyl-2-propylpentyl]benzenesulfonamide], the fold induction at 20 µg/mL with beta amyloid production (setting [2]) was 3.6. In the data set with CHO-K1 cells (setting [3]), the “(%)APPI Toxicity” value is reported as 1 (1=non-toxic).
The corresponding values for `CC[C@@H](c1ccco1)[C@@H](CO)NS(=O)(=O)c1ccc(Cl)cc1` [Example 66, 4-chloro -N-[(1S,2R)-2-(2-furyl)-1-(hydroxymethyl)butyl]benzenesulfonamide] are 5.5 and 1 (1=non-toxic).
The like results for `CCCCCC[C@@H](CCCCC)[C@@H](CO)NS(=O)(=O)c1ccc(Cl)cc1` [Example 62, 4-chloro-N-[(1S,2R)-1-(hydroxymethyl)-2-pentyloctyl]benzenesulfonamide] were, in that order, 1.8 and 1 (1=non-toxic).
As to `CC(C)(C)[C@@H](CO)NS(=O)(=O)c1cc(Cl)c(Cl)cc1Cl` [Example 31, 2,4,5-trichloro-N-[(1S)-1-(hydroxymethyl)-2,2-dimethylpropyl]benzenesulfonamide], in the data set on beta amyloid production (setting [1]), the fold induction at 20 µg/mL was found to be 2.8. The “(%)APPI Toxicity” value in the data set with CHO-K1 cells (Conc 20 μg/ml) is 1 (1=non-toxic).
On to `CC[C@H](C)[C@H](NS(=O)(=O)c1ccc(F)cc1)C(O)c1ccc(OC)cc1` (stereo partly drawn) [Example 139, 4-fluoro-N-{(1S,2S)-1-[hydroxy(4-methoxyphenyl)methyl]-2-methylbutyl}benzenesulfonamide], for which the fold induction at 10 µg/mL in the data set on beta amyloid production (setting [1]) was 2.12. Further, the “(%)APPI Toxicity” value with CHO-K1 cells (Conc 10 μg/ml) was 1 (1=non-toxic).
The corresponding values for `CCCCC(O)(CCCC)[C@@H](NS(=O)(=O)c1ccc(F)cc1)[C@@H](C)CC` [Example 238, N-{(1S)-2-butyl-2-hydroxy-1-[(1S)-1-methylpropyl]hexyl}-4-fluorobenzenesulfonamide] are 4.5 and 1 (1=non-toxic).
The like results for `CC[C@H](C)[C@H](NS(=O)(=O)c1ccccc1F)C(O)c1ccc(Cl)cc1` (stereo partly drawn) [Example 208, N-{(1S,2S)-1-[(4-chlorophenyl) (hydroxy)methyl]-2-methylbutyl}-2-fluorobenzenesulfonamide] were, in that order, 2.01 and 1 (1=non-toxic).
For the compound `C/C=C(\C)C(O)(/C(C)=C/C)[C@@H](NS(=O)(=O)c1ccc(Cl)cc1)[C@@H](C)CC` (stereo partly drawn) [Example 232, 4-chloro-N-{(1S,3E)-2-hydroxy-3-methyl-2-[(1E)-1-methyl-1-propenyl]-1-[(1S)-1-methylpropyl]-3-pentenyl}benzenesulfonamide], the fold induction at 10 µg/mL with beta amyloid production (setting [1]) is 1.94. For the same compound, the fold induction at 20 µg/mL in the data set on beta amyloid production (setting [1]) turned out to be 4.2. In addition, the “(%)APPI Toxicity” value in the data set with CHO-K1 cells (Conc 10 μg/ml) and with CHO-K1 cells (Conc 20 μg/ml) was 1 (1=non-toxic) each time.
`CCCCCC(O)(CCCCC)[C@@H](NS(=O)(=O)c1ccccc1F)[C@@H](C)CC` [Example 262, 2-fluoro-N-{(1S)-2-hydroxy-1-[(1S)-1-methylpropyl]-2-pentylheptyl}benzenesulfonamide]: the fold induction at 10 µg/mL in the data set with beta amyloid production (setting [1]) turned out to be 2.2. Besides, the “(%)APPI Toxicity” value with CHO-K1 cells (Conc 10 μg/ml) was 1 (1=non-toxic).
The corresponding values for `C=C(C)C(O)[C@@H](NS(=O)(=O)c1ccc(Br)cc1)[C@@H](C)CC` (stereo partly drawn) [Example 157, 4-bromo-N-{(1S)-2-hydroxy-3-methyl-1-[(1S)-1-methylpropyl]-3-butenyl}benzenesulfonamide] are 1.96 and 1 (1=non-toxic).
Turning to `CC(C)C[C@H](CO)NS(=O)(=O)c1ccccc1F` [Example 113, 2-fluoro-N-[(1R)-1-(hydroxymethyl)-3-methylbutyl]benzenesulfonamide], in the data set on beta amyloid production (setting [1]), the fold induction at 20 µg/mL turned out to be 1.6. Besides, in the data set with CHO-K1 cells (Conc 20 μg/ml), the “(%)APPI Toxicity” value is given as 1 (1=non-toxic).
The like results for `CC[C@H](C)[C@@H](CO)NS(=O)(=O)c1cc(Br)ccc1Br` [Example 21, 2,5-dibromo-N-[(1S,2S)-1-(hydroxymethyl)-2-methylbutyl]benzenesulfonamide] were, in that order, 1.6 and 1 (1=non-toxic).
With `C[C@@H](c1ccco1)[C@@H](CO)NS(=O)(=O)c1ccc(Br)cc1` [Example 84, 4-bromo-N-[(1S,2R)-2-(2-furyl)-1-(hydroxymethyl)propyl]benzenesulfonamide], the fold induction at 20 µg/mL in the data set on beta amyloid production (setting [2]) is 3.4. In the data set with CHO-K1 cells (setting [3]), the “(%)APPI Toxicity” value is reported as 1 (1=non-toxic).
The like results for `CCC[C@H](C)[C@@H](CO)NS(=O)(=O)c1ccc(Br)cc1` [Example 76, 4-bromo-N-[(1S,2S)-1-(hydroxymethyl)-2-methylpentyl]benzenesulfonamide] were, in that order, 5.8 and 1 (1=non-toxic).
The like results for `CC[C@@H](c1ccco1)[C@@H](CO)NS(=O)(=O)c1ccc(Br)cc1` [Example 85, 4-bromo-N-[(1S,2R)-2-(2-furyl)-1-(hydroxymethyl)butyl]benzenesulfonamide] were, in that order, 3.4 and 1 (1=non-toxic).
As for `CC[C@H](C)[C@H](NS(=O)(=O)c1ccc(Cl)cc1)C(O)(c1ccccc1)c1ccccc1` [Example 227, 4-chloro-N-{(1S,2S)-1-[hydroxy(diphenyl)methyl]-2-methylbutyl}benzenesulfonamide], in the data set with beta amyloid production (setting [1]), the fold induction at 10 µg/mL was 1.65. Moreover, the “(%)APPI Toxicity” value with CHO-K1 cells (Conc 10 μg/ml) is 1 (1=non-toxic).
For `CC(C)(C)[C@@H](CO)NS(=O)(=O)c1c(Cl)cc(Cl)cc1Cl` [Example 32, 2,4,6-trichloro-N-[(1 S)-1-(hydroxymethyl)-2,2-dimethylpropyl]benzenesulfonamide], in the data set with beta amyloid production (setting [1]), the fold induction at 20 µg/mL worked out at 2.2. Besides, the “(%)APPI Toxicity” value with CHO-K1 cells (Conc 20 μg/ml) was 1 (1=non-toxic).
For the compound `CC[C@H](c1ccc(OC)cc1)[C@@H](CO)NS(=O)(=O)c1ccc(Br)cc1` [Example 74, 4-bromo-N-[(1S,2R)-1-(hydroxymethyl)-2-(4-methoxyphenyl)butyl]benzenesulfonamide], in the data set with beta amyloid production (setting [2]), the fold induction at 20 µg/mL came out at 2.5. Also, the “(%)APPI Toxicity” value in the data set on CHO-K1 cells (setting [3]) was 1 (1=non-toxic).
Take `CC[C@H](C)[C@H](NS(=O)(=O)c1cccc(Cl)c1)C(O)(c1ccccc1)c1ccccc1` [Example 253, 3-chloro-N-{(1S,2S)-1-[hydroxy(diphenyl)methyl]-2-methylbutyl}benzenesulfonamide]: the fold induction at 10 µg/mL in the data set on beta amyloid production (setting [1]) worked out at 1.61. The “(%)APPI Toxicity” value with CHO-K1 cells (Conc 10 μg/ml) was 1 (1=non-toxic).
With `CCC[C@H](CC(C)C)[C@@H](CO)NS(=O)(=O)c1ccc(Br)cc1` [Example 78, 4-bromo-N-[(1S,2R)-1-(hydroxymethyl)-4-methyl-2-propylpentyl]benzenesulfonamide], the fold induction at 20 µg/mL in the data set on beta amyloid production (setting [2]) came to 4.4. For the same compound, in the data set with CHO-K1 cells (setting [3]), the “(%)APPI Toxicity” value was 1 (1=non-toxic).
Regarding `C=CCCC(O)[C@@H](NS(=O)(=O)c1ccc(F)cc1)[C@@H](C)CC` (stereo partly drawn) [Example 141, 4-fluoro-N-{(1S)-2-hydroxy-1-[(1S)-1-methylpropyl]-5-hexenyl}benzenesulfonamide], the fold induction at 10 µg/mL in the data set with beta amyloid production (setting [1]) came to 1.79. Further, the “(%)APPI Toxicity” value in the data set on CHO-K1 cells (Conc 10 μg/ml) is 1 (1=non-toxic).
`CC[C@H](C)[C@@H](CO)NS(=O)(=O)c1cccc2ccccc12` [Example 12, N-[(1S,2S)-1-(hydroxymethyl)-2-methylbutyl]naphthalene-1-sulfonamide]: the fold induction at 20 µg/mL with beta amyloid production (setting [1]) came to 2.9. The “(%)APPI Toxicity” value in the data set with CHO-K1 cells (Conc 20 μg/ml) is recorded as 1 (1=non-toxic).
